Experimental data from patent publication US20130289019A1, “METHODS OF TREATING BEHAVIORIAL AND/OR MENTAL DISORDERS” (AMAZING GRACE, INC., priority 2012, published 2013).
“Also recorded” adds a separate entry of the source. Marks after values point to notes of the source that are not given here.

Columns and labels:
[1] = test system: glutamatergic NMDA receptor in the NAc; experiment: NMDA receptor antagonists injected into the NAc (Rada et al. 2003); type: in vivo; settings: Applicant's data (Rada et al. 2003)
Source text: In the NAc, M2/M4 receptors are also located on glutamate-containing axonal terminals that originate from neurons located in corticolimbic and thalamic regions involved in depression and anxiety.

[2] = test system: rats (NAcShell injection); experiment: Porsolt swim test after injection of mAChR agonists and antagonists in the NAcShell; type: in vivo, rat; settings: for Drug (sec), mean swimming time / Percent change of swimming time vs Ringer / Time diff (sec), drug vs Ringer: 600 sec swim test; for immobility in the swim test, effect in words: infusion into the NAcShell
Description: FIG. 3 is a graph illustrating swimming time following injections of cholinergic drugs in NAc (black bars), compared to Ringer (white bars). (A) Local injection of arecoline, a muscarinic agonist, decreased swim time; the animals quickly gave up (40 μg, −41%, n=8, t=3.53, p<0.01; and 80 μg, −66%, n=6, t=4.12, p<0.01). (B) Pirenzepine, an M1 antagonist, increased swimming escape attempts in the manner of an antidepressant, but note this is a local injection (17.5 μg, n=8, +39%, t=3.63, p<0.01; 35 μg, +40%, n=9, t=7.15, p<0.001). […] (D) Local gallamine, an M2 antagonist, decreased swim time (0.13 μg/side, −21%, n=7, t=3.72, p<0.01; 0.44 μg/side, −37%, n=8, t=2.95, p<0.05; 0.88 μg/side, −36%, n=7, t=4.64, p<0.01). Swimming time following Ringer is normalized to 100%, with each bar representing the mean of the normalized responses across subjects. Swimming time following a drug injection is expressed as a percentage of the swimming time following vehicle injection on a different day. Significant changes in the within-subject response to drug injections are indicated with asterisks (* p<0.05, ** p<0.01, *** p<0.001).
The Porsolt swim test is an animal model of depression widely used as a screen for drugs with potential antidepressant effects in humans and for elucidating the pharmacological mechanisms of action of antidepressant medications. For example, the following procedure may be used:
On the first day of this test (day 1), a rodent (typically a rat) is placed in a cylindrical water tank for 15 min. Then after 24 hours (day 2) and 48 hours (day 3), drug and Ringer are administered to the animal in counterbalanced order. Immediately following each injection, the animal is placed in the swim test for 10 min. The length of time it swims during the swim tests is recorded. “Swimming” is defined by escape behaviors (i.e. diving, rigorous paddling with all four legs, circling the tank, and clambering at the tank walls). ‘Immobility’ was scored as floating and treading water just enough to keep the nose above water. Typically, after the first swimming session, animals become behaviorally depressed as shown by swimming less on later test days (day 2 or 3). […] Antidepressants increase swimming without affecting locomotor activity, whereas non-antidepressant drugs such as certain psychostimulants may also decrease immobility, but also increase locomotor activity in the open field test. Therefore, to screen a potential antidepressant, the swim test is typically followed by test for hyperactivity in the open field.
Rats were placed in the 600 sec (10 min) swim test following injections of drugs in the NAcShell. When not swimming, rats floated or made minimal forepaw movements to keep their noses above water. Each rat received one drug counterbalanced with Ringer on a separate day. The shorter control swim times for the gallamine group, relative to groups that received other drugs, may have been due to a seasonal difference. Control injections, shown in the last line, were made 2 mm dorsal to the accumbens (Pirenzepine Ctrl). Asterisks indicate significant difference between drug and Ringer (* p<0.05; ** p<0.01; *** p<0.001).

[3] = test system: rats (NAcShell injection); experiment: locomotor activity in a photocell cage after drug injection in the NAcShell; type: in vivo, rat; settings: 10 min following injection in NAcShell; arecoline 40 μg, pirenzepine 35 μg, scopolamine 1 μg, gallamine 0.88 μg
Description: FIG. 4 is a graph illustrating the effects of cholinergic drugs on locomotor activity in a photocell cage. Activity in the 10 min following drug injection in the NAcShell (black bars) is expressed as a percentage of control injections normalized to 100% (white bars).
FIG. 4 illustrates the effects of cholinergic drugs on locomotor activity in a photocell cage. Activity in the 10 min following drug injection in the NAc (black bars) is expressed as a percentage of control injections normalized to 100% (white bars).

[4] = test system: NAcShell of rats (ICSS reward threshold); experiment: discrete trial current-threshold intracranial self-stimulation (ICSS), drugs infused into NAcShell; type: in vivo, rat; settings: for ICSS threshold change: vs baseline, N=2; for ICSS threshold, effect in words: infused into the NAcShell during the ICSS procedure
Source text: FIG. 2 is a graph illustrating the effect of antagonism of M1 mAChR and agonism of mAChR in the nucleus accumbens shell (NAcShell). The discrete trial current-threshold intracranial self-stimulation paradigm was used to assess the effect of cholinergic drugs infused directly into the NAcShell on reward, independent of performance. See below and Markou and Koob (Neuropsychopharmacology. 1991 January; 4(1):17-26) for detailed description of the paradigm. Thresholds measured in a rat vary little in the 4 pre-drug days (<7% of the mean or baseline). The non-selective mAChR agonist arecoline dose-dependently elevates threshold (0.01 M, +11%; 1.0 M, +57.5%, N=2). Pirenzepine dihydrochloride (Sigma-Aldrich, Saint Louis, Mo.), a selective M1 mAChR antagonist, dose-dependently lowers threshold (0.1 mM, −7%; 100 mM, […], N=2). The drugs were infused into the NAcShell at a steady rate by reversed microdialysis over the hour required to complete threshold testing.
Anhedonia may be assessed by applying the intracranial self-stimulation (ICSS) paradigm. The ICSS may be used to assess anhedonia, reward, hedonic capacity, and motivation in animals. In this paradigm, a rat performs an operant task (e.g. pressing a bar) to receive rewarding electrical stimulation through electrodes implanted into specific areas of the brain, including the lateral hypothalamus (LH), medial forebrain bundle (MFB), ventral tegmental area containing dopamine neurons (VTA), the nucleus accumbens shell or nucleus accumbens medial core, ventral pallidum, orbitofronal cortex (OPFC), medial frontal cortex (MPFC), cingulate cortex, lateral bed nucleus of the stria terminalis of the amygdala (BNST), mediodorsal thalamus (mdTham), lateral septum, the dorsal raphe containing serotonin neurons, the locus coeruleus containing norepinephrine neurons (see FIG. 1). As noted above, these regions supporting ICSS form an interconnected network commonly referred to as the “brain reward circuitry.”
A skilled artisan would recognize that variations of the ICSS paradigm may be used. For example, one of the most commonly used ICSS procedures, which has been experimentally validated and has shown to be reward-selective, is the discrete-trial current-intensity threshold procedure. This procedure directly and reliably assesses an animal's sensitivity to rewards, hedonic capacity, and motivation, independent of performance, i.e., ability to move (for detailed procedures see Markou and Koob, Neuropsychopharmacology. 1991 January; 4(1):17-26). The discrete trial current-intensity threshold ICSS procedure provides unique ways to investigate the anatomical and neurochemical basis of reward and motivation and is an important tool for assessing of the reward-facilitating or anhedonic effects of various drugs or medications.
Lowering of ICSS thresholds indicates facilitation of brain stimulation reward, whereas elevation in ICSS threshold indicates diminished reward value of the stimulation and thus an anhedonic state. Acute administration of most drugs of abuse, including cocaine, amphetamine, nicotine, morphine, and heroin, lower ICSS thresholds in experimental animals, logically because of their rewarding values. By contrast, withdrawal from chronic administration of these drugs elevates ICSS thresholds, indicating an anhedonic state that resembles the negative affective and motivational state of the drug withdrawal syndrome experienced by humans. Elevated ICSS threshold also occurs in animal models of depression. Such elevation in ICSS threshold reflects decreased sensitivity to rewarding stimuli, decreased hedonic capacity or motivation, and/or an aversive and dysphoric affective state of the animal model of depression. Importantly, administration of antidepressants normalizes or lowers ICSS threshold in such animals, indicating a reversal of reward and motivational deficits.
FIG. 2 is a graph illustrating the effect of antagonism of M1 mAChR and agonism of mAChR in the NAcShell. […]

[5] = test system: extracellular ACh in NAcShell; experiment: ACh efflux in NAcShell, infusion by reverse dialysis in freely moving rats; type: in vivo, rat; settings: for extracellular ACh: 20 min infusion in NAcShell by reverse dialysis, oxotremorine 4 mM (hour following infusion), gallamine 1 mM, scopolamine 10 mM probe concentration; for duration of the ACh increase (until return to baseline): gallamine 1 mM: time following the infusion, scopolamine 10 mM; for ACh level in the NAc, effect in words: inventor's data (Chau et al. 2001)
Description: To determine if the M2 drugs act presynaptically on autoreceptors controlling ACh release, freely moving rats received infusions of an M2 agonist or antagonist in the NAcShell for 20 min by reverse dialysis while extracellular ACh was measured.
To determine if the M2 drugs act presynaptically on autoreceptors controlling ACh release, freely moving rats received infusions of an M2 agonist or antagonist in the NAc for 20 min by reverse dialysis while extracellular ACh was measured.

[6] = test system: patients with major depression and bipolar disorder; settings: cited from earlier work
[7] = test system: NMDA receptor (depressed humans); settings: human trials (Zarate et al. 2006); cited from earlier work
[8] = 17.5 μg/side, control injections 2 mm dorsal to the accumbens

Structure (SMILES): NC(CCCP(=O)(O)O)C(=O)O (centres unmarked) [AP-5]
- effect on depression, in words [1]: alleviate depression

Structure (SMILES): COC(=O)C1=CCCN(C)C1 [Arecholine]
- Drug (sec), mean swimming time ([2]; 40.0 μg/side in NAcShell): 235 ± 17** sec
- Percent change of swimming time vs Ringer ([2]; 40.0 μg/side in NAcShell): −41%
- Time diff (sec), drug vs Ringer ([2]; 40.0 μg/side in NAcShell): -162 s
- Percent change of swimming time vs Ringer ([2]; 40.0 μg/side in NAcShell, listed as arecoline): −41%
- Drug (sec), mean swimming time ([2]; 80.0 μg/side in NAcShell): 109 ± 34** sec
- Percent change of swimming time vs Ringer ([2]; 80.0 μg/side in NAcShell): −66%
- Time diff (sec), drug vs Ringer ([2]; 80.0 μg/side in NAcShell): -209 s
- Percent change of swimming time vs Ringer ([2]; 80.0 μg/side in NAcShell, listed as arecoline): −66%
- locomotor activity vs Ringer, in words [3]: significantly decreased
- ICSS threshold change ([4]; arecoline 0.01 M infused into NAcShell by reversed microdialysis over 1 h): +11%
- ICSS threshold change ([4]; arecoline 1.0 M infused into NAcShell by reversed microdialysis over 1 h): +57.5%
- ICSS threshold, effect in words [4]: dose-dependently increases ICSS threshold

Structure (SMILES): CC[N+](CC)(CC)CCOc1cccc(OCC[N+](CC)(CC)CC)c1OCC[N+](CC)(CC)CC [Gallamine]
- extracellular ACh [5]: 437 % of baseline
- duration of the ACh increase (until return to baseline) [5]: 20 min
- Drug (sec), mean swimming time ([2]; 0.13 μg/side in NAcShell): 155 ± 26** sec
- Percent change of swimming time vs Ringer ([2]; 0.13 μg/side in NAcShell): −21%
- Time diff (sec), drug vs Ringer ([2]; 0.13 μg/side in NAcShell): -41 s
- Percent change of swimming time vs Ringer ([2]; 0.13 μg/side in NAcShell, listed as gallamine): −21%
- Drug (sec), mean swimming time ([2]; 0.44 μg/side in NAcShell): 148 ± 24* sec
- Percent change of swimming time vs Ringer ([2]; 0.44 μg/side in NAcShell): −37%
- Time diff (sec), drug vs Ringer ([2]; 0.44 μg/side in NAcShell): -88 s
- Percent change of swimming time vs Ringer ([2]; 0.44 μg/side in NAcShell, listed as gallamine): −37%
- locomotor activity vs Ringer, in words [3]: not significantly different from Ringer

Structure (SMILES): CN1CCN(CC(=O)N2c3ccccc3C(=O)Nc3cccnc32)CC1 [Pirenzepine]
- Drug (sec), mean swimming time ([2]; 17.5 μg/side in NAcShell): 480 ± 38** sec
- Time diff (sec), drug vs Ringer ([2]; 17.5 μg/side in NAcShell): +134 sec
- Drug (sec), mean swimming time [2, 8]: 301 ± 34 s
- Percent change of swimming time vs Ringer [2, 8]: −10%
- Time diff (sec), drug vs Ringer [2, 8]: -36 s
- Drug (sec), mean swimming time ([2]; 35.0 μg/side in NAcShell): 412 ± 26*** sec
- Time diff (sec), drug vs Ringer ([2]; 35.0 μg/side in NAcShell): +117 sec
- immobility in the swim test, effect in words [2]: decreases immobility
- locomotor activity vs Ringer, in words [3]: not significantly different from Ringer; also recorded: without altering activity in the open field
- ICSS threshold, effect in words [4]: dose-dependently lowers ICSS threshold
- ICSS threshold change ([4]; pirenzepine 0.1 mM infused into NAcShell by reversed microdialysis over 1 h): −7%
- ICSS threshold change ([4]; pirenzepine 100 mM infused into NAcShell by reversed microdialysis over 1 h): 14%

Structure (SMILES): CN1[C@@H]2C[C@@H](OC(=O)[C@H](CO)c3ccccc3)C[C@H]1[C@@H]1O[C@@H]12 [Scopolamine]
- rate of remission in female patients ([6]; human trials): ≤ 71%
- duration of antidepressant/anti-anxiety effects ([6]; one single dose): more than 17 days
- time to reduction of depression and anxiety ([6]; one single dose, patients with major depression and bipolar disorder): 3 to 5 days
- extracellular ACh [5]: 220 % of baseline
- duration of the ACh increase (until return to baseline) [5]: more than 100 min
- ACh level in the NAc, effect in words [5]: elevates ACh level in the NAc
- Drug (sec), mean swimming time ([2]; 0.5 μg/side in NAcShell): 306 ± 44 s
- Percent change of swimming time vs Ringer ([2]; 0.5 μg/side in NAcShell): −12%
- Time diff (sec), drug vs Ringer ([2]; 0.5 μg/side in NAcShell): -44 s
- Percent change of swimming time vs Ringer ([2]; 0.5 μg/side in NAcShell, listed as scopolamine): N.S.
- Drug (sec), mean swimming time ([2]; 1.0 μg/side in NAcShell): 541 ± 13*** sec
- Percent change of swimming time vs Ringer ([2]; 1.0 μg/side in NAcShell): +50%
- Time diff (sec), drug vs Ringer ([2]; 1.0 μg/side in NAcShell): +181 sec
- Percent change of swimming time vs Ringer ([2]; 1.0 μg/side in NAcShell, listed as scopolamine): +50%
- immobility in the swim test, effect in words [2]: decreases immobility
- locomotor activity vs Ringer, in words [3]: not significantly different from Ringer; also recorded: without altering activity in the open field

Structure (SMILES): C[C@]12N[C@H](Cc3ccccc31)c1ccccc12 [dizocilpine]
- effect on depression, in words [1]: alleviate depression

Structure (SMILES): CNC1(c2ccccc2Cl)CCCCC1=O (centres unmarked) [ketamine]
- antidepressant effect, in words [7]: rapid antidepressant effect

Structure (SMILES): O=C1CCCN1CC#CCN1CCCC1 [oxotremorine]
- extracellular ACh [5]: 55 % of baseline
- ACh level in the NAc, effect in words [5]: decreasing ACh
